The results in this text go back to PubChem BioAssay (NCI).

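Briefly, cells in 96-well plates were exposed to five compound concentrations for 48 h, and endpoints were estimated by linear interpolation. TGI marks complete inhibition of growth.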

Test systems include 786-0 renal; BT-549 breast; CCRF-CEM leukemia; EKVX NSCLC; IGROV1 ovarian; MDA-MB-231 breast; MDA-N; NCI-H23 lung; SK-MEL-2 melanoma; T-47D breast; RPMI-8226 leukemia.
Test in all cases: NCI-60 cell line screen, 48 h

Consider `O=C(O)[C@H]1CCCN1CP(=O)(O)CN1CCC[C@@H]1C(=O)O`, for which the TGI in the assay on 786-0 renal, with BT-549 breast, with CCRF-CEM leukemia, in the assay on EKVX NSCLC, in the assay with IGROV1 ovarian and with MDA-MB-231 breast was more than 100 µM each time. Moreover, the TGI in the assay with MDA-N, in the assay with NCI-H23 lung, in the assay on SK-MEL-2 melanoma and with T-47D breast was more than 100 µM each time.

For the compound `Nc1ccc(N=Nc2c(S(=O)(=O)O)cc3ccccc3c2S(=O)(=O)O)cc1`, the TGI in the assay with 786-0 renal, in the assay on BT-549 breast, in the assay on CCRF-CEM leukemia, with EKVX NSCLC, with IGROV1 ovarian and in the assay on MDA-MB-231 breast was more than 100 µM in each case. Besides, the TGI in the assay with MDA-N, in the assay with NCI-H23 lung, with SK-MEL-2 melanoma and in the assay on T-47D breast was more than 100 µM each time.

With `CC(=O)NC1C(OCc2ccccc2)OC(CO)C(O)C1OCC(=O)N[C@@H](C)C(=O)N[C@H](CCC(=O)NCCCNc1c2ccccc2nc2cccc([N+](=O)[O-])c12)C(N)=O` (stereo partly drawn), the TGI with 786-0 renal is 0.0795 µM; in the assay on BT-549 breast, 0.287 µM; in the assay with CCRF-CEM leukemia it was more than 100 µM; with EKVX NSCLC, 0.264 µM; in the assay with IGROV1 ovarian, 0.606 µM; in the assay with MDA-MB-231 breast, 0.45 µM. In addition, the TGI in the assay on MDA-N stood at 0.102 µM; in the assay on NCI-H23 lung, 0.0835 µM; in the assay on RPMI-8226 leukemia, 0.242 µM; in the assay with T-47D breast, 0.25 µM.

`Cc1nc(C)c(N2CCN([N+](=O)[O-])CC2)c(=O)[nH]1`: the TGI in the assay on 786-0 renal, in the assay on BT-549 breast, with CCRF-CEM leukemia, in the assay with EKVX NSCLC, with IGROV1 ovarian and in the assay on MDA-MB-231 breast was more than 100 µM each time. For the same compound, the TGI with MDA-N, with NCI-H23 lung, in the assay with RPMI-8226 leukemia and with T-47D breast was more than 100 µM each time.

Regarding `CC(NC(=O)Cc1ccccc1)NC(=O)C(C)C(=O)Nc1ccccc1` (stereo not drawn), the TGI in the assay on 786-0 renal, with BT-549 breast, in the assay on EKVX NSCLC, with IGROV1 ovarian, in the assay with MDA-MB-231 breast and in the assay on MDA-N was more than 100 µM throughout. Moreover, the TGI in the assay with NCI-H23 lung, in the assay on RPMI-8226 leukemia, in the assay on SK-MEL-2 melanoma and in the assay with T-47D breast was more than 100 µM throughout.

Take `Clc1ccc(-c2nnc3sc4nc5ccccc5c-4nn23)c(Cl)c1`: the TGI with 786-0 renal was more than 100 µM; with BT-549 breast it was 93.8 µM; in the assay on CCRF-CEM leukemia, more than 100 µM; in the assay on EKVX NSCLC it was more than 100 µM; with MDA-MB-231 breast it was more than 100 µM; in the assay on MDA-N, 82.6 µM. Further, the TGI was more than 100 µM with NCI-H23 lung, 82.2 µM in the assay with SK-MEL-2 melanoma and more than 100 µM in the assay with T-47D breast.

For `COc1cc(OC)cc(C(=O)CC(=O)c2cc(OC)cc(OC)c2)c1`, the TGI with 786-0 renal, in the assay with BT-549 breast, in the assay with CCRF-CEM leukemia, with EKVX NSCLC, in the assay on IGROV1 ovarian and with MDA-N was more than 100 µM each time. Also, the TGI with NCI-H23 lung, with RPMI-8226 leukemia and in the assay with T-47D breast was more than 100 µM in each case.

On to `O=C(O)CN1CCN2CCCCCN(CC1)CCN(CC(=O)O)CC2`, for which the TGI with 786-0 renal, in the assay with BT-549 breast, with CCRF-CEM leukemia, in the assay with EKVX NSCLC, with IGROV1 ovarian and with MDA-MB-231 breast was more than 100 µM throughout. The TGI in the assay with MDA-N, in the assay with RPMI-8226 leukemia, with SK-MEL-2 melanoma and in the assay with T-47D breast was more than 100 µM each time.

Take `CC1(C)OC[C@@H](O)[C@H](C#N)CO1`: the TGI in the assay with 786-0 renal, in the assay on BT-549 breast, in the assay on CCRF-CEM leukemia, in the assay on EKVX NSCLC, in the assay on MDA-MB-231 breast and in the assay on MDA-N was more than 100 µM in each case. Moreover, the TGI in the assay with NCI-H23 lung, in the assay with RPMI-8226 leukemia, with SK-MEL-2 melanoma and with T-47D breast was more than 100 µM throughout.

Take `O=C(O)CN1CCNCCN(CC(=O)O)CCN(CC(=O)O)CCNCC1`: the TGI with 786-0 renal, with BT-549 breast, in the assay on CCRF-CEM leukemia, in the assay with EKVX NSCLC, in the assay on IGROV1 ovarian and with MDA-MB-231 breast was more than 100 µM in each case. In addition, the TGI in the assay with MDA-N, in the assay with RPMI-8226 leukemia, in the assay with SK-MEL-2 melanoma and in the assay with T-47D breast was more than 100 µM throughout.

With `CCNC(=S)NNC(=O)C12CC3CC(CC(C3)C1)C2`, the TGI in the assay with 786-0 renal, in the assay on BT-549 breast, in the assay with CCRF-CEM leukemia, in the assay with IGROV1 ovarian, in the assay with MDA-MB-231 breast and in the assay on MDA-N was more than 100 µM in each case. Further, the TGI in the assay on NCI-H23 lung, with RPMI-8226 leukemia, with SK-MEL-2 melanoma and in the assay on T-47D breast was more than 100 µM in each case.

As for `O=C1OC(C2Cc3ccc4ccccc4c3C2=O)c2ccccc21` (stereo not drawn), the TGI in the assay on 786-0 renal, in the assay on BT-549 breast, in the assay with CCRF-CEM leukemia, in the assay with EKVX NSCLC, with IGROV1 ovarian and in the assay with MDA-MB-231 breast was more than 100 µM each time. Moreover, the TGI is more than 100 µM in the assay on MDA-N, 93.3 µM in the assay on RPMI-8226 leukemia, more than 100 µM in the assay with SK-MEL-2 melanoma and more than 100 µM in the assay on T-47D breast.

As for `CC(c1ccccc1)N1CCN(C(C)c2ccccc2)CC1` (stereo not drawn), the TGI in the assay on 786-0 renal, with BT-549 breast, in the assay on EKVX NSCLC, in the assay with IGROV1 ovarian, in the assay on MDA-MB-231 breast and with MDA-N was more than 100 µM in each case. For the same compound, the TGI with NCI-H23 lung, in the assay on RPMI-8226 leukemia, in the assay on SK-MEL-2 melanoma and in the assay with T-47D breast was more than 100 µM each time.

Regarding `N#CNC(=NCc1ccccc1)N(Cc1ccccc1)Cc1ccccc1`, the TGI in the assay on 786-0 renal is more than 31.6 µM; in the assay on BT-549 breast it was more than 100 µM; in the assay with CCRF-CEM leukemia, more than 31.6 µM; in the assay with IGROV1 ovarian, more than 31.6 µM; with MDA-MB-231 breast, 85.3 µM; with MDA-N, more than 100 µM. The TGI with NCI-H23 lung is more than 31.6 µM; with RPMI-8226 leukemia it was more than 31.6 µM; in the assay on SK-MEL-2 melanoma, 26.4 µM; in the assay on T-47D breast it was more than 100 µM.
